{"source": "patent US20090239285A1", "about": "“TANDEM REAPEAT DNA CONSTRUCTS PRODUCING PROTEINS THAT ATTACK PLANT PATHOGENIC VIRUSES, FUNGI, AND BACTERIA BY DISRUPTING TRANSCRIPTION FACTORS ESSENTIAL FOR REPLICATION THEREOF IN PLANTS” (priority 2008, published 2009)", "key": {"Mammalian rotaviruses": {"tested_on": "Mammalian rotaviruses", "details": "millimolar concentrations, in vitro; cited from earlier work"}, "mammalian retroviruses": {"tested_on": "mammalian retroviruses", "details": "millimolar concentrations, in vitro; cited from earlier work"}, "HSV-1": {"tested_on": "HSV-1", "details": "in tissue culture and in animals; cited from earlier work"}, "[1]": {"biological_target": "T1, Zn(HIV1-F1) zinc finger peptide (N-terminal CCHC region of the HIV-LA1 gag polyprotein) (Human immunodeficiency virus type 1 group M subtype B, UniProt P03348)", "T1 construct": "corresponds to the N-terminal CCHC region of the HIV-LA1 gag polyprotein (amino acids 390-470); made in house; host or cells: chemical synthesis (synthetic peptide)", "assay": "NMR studies of ligand binding by a zinc finger peptide from HIV-1", "details": "for binding to Zn(HIV1-F1): NMR spectroscopy, titration and NOESY", "source_text": "The interaction between two of the ligands of this invention (Fusaric acid and picolinic acid) and their binding by a Zinc Finger Peptide from HIV-1 containing a zinc finger motif were studied by NMR spectroscopy (FIGS. 16, and 16.1-4).\nThe peptide sequence […], corresponds to the N-terminal CCHC region of the HIV-LA1 gag polyprotein (amino acids 390-470). The peptide containing the complex of zinc atom bound to the zinc finger domain of the peptide was named: Zn (HIV1-F1).\nA synthetic oligonucleotide with sequence corresponding to a region of HIV-1 psi-packaging signal, d (ACGCC) was complexed with the peptide (South and Summers, 1993).Fusaric Acid [[…]] was denoted FSR-488 and picolinic acid [2-pyridine carboxylic acid] was denoted PCL-016. Interactions of FSR-488 and PCL-016 with the zinc finger peptide containing Zn [Zn(HIV1-F1)] were studied by NMR spectroscopy. […] Titration experiments with each of the two molecules caused shifts in the ^1H resonances of Zn(HIV1-F1) that are similar to those observed when the peptide binds analogs of its natural substrate. Two dimensional NOE correlation spectroscopy (NOESY) of the solution containing Zn(HIV1-F1) and FSR-488 gave cross peaks at frequencies that are consistent with contacts between FSR-488 and hydrogen nuclei in the hydrophobic cleft of the peptide.\nA sample containing peptide (1.63 mM) and Zn^2+ (2 mM) was titrated with a solution of FSR-488. The experiment was monitored by one dimensional ^1H NMR spectroscopy. Under conditions in which the free zinc in the buffer was minimized, titrations with FSR-488 were conducted. Addition of FSR-488 yielded spectral shifts in the spectrum of the peptide (FIGS. 16, and 16.1-4). […] This experimental finding and conclusions led the inventors to run a second 2D NOESY experiment, this time at the higher concentration of FSR-488.\nThe NOESY spectrum at the high concentration of [FSR-488]. was considerable different than that measured at low concentrations of [FSR-488]. […] Interpretations for these assignments are presented in detailed below."}, "Orobanche ramose": {"tested_on": "Orobanche ramose", "details": "Arabidopsis thaliana pre-treated with FU; cited from earlier work"}, "HSV-2": {"tested_on": "HSV-2", "details": "in tissue culture and in animals; cited from earlier work"}, "[2]": {"tested_on": "Common ornamental plant cells infected by viruses", "assay": "Treatment of virus-infected ornamental plants with antiviral agents", "details": "viral strains not determined"}, "recombinant MPS-1": {"biological_target": "T2, recombinant MPS-1 (Homo sapiens, UniProt P42677)", "T2 construct": "made in house", "assay": "Gel shift assay and radioactive Zn65 release from recombinant MPS-1", "type": "biochemical", "details": "for zinc dependent binding of recombinant MPS-1 to DNA: gel shift assays", "source_text": "MPS-1 is a ubiquitous tumor marker and cell growth stimulator and is described in detail in the inventors' U.S. Pat. No. 5,243,041. MPS-1 has one zinc finger domain of the type CCCC. […] This is detected by a change in the electrophoretic mobility of MPS-1 under non-denaturing conditions. These experiments indicate that picolinic acid and derivatives should remove zinc and denature various types of zinc finger, zinc ring proteins, or other types of ZF motifs whether known or heretofore undiscovered, including animal or plant viral proteins such as nucleocapsid proteins of retrovirus or the nucleocapsid proteins of Geminivirus. Furthermore, the inventors have determined that any chemical compound, whether known or heretofore undiscovered, that will remove the zinc (or other metal) and denature the proteins or that will form a ternary complex (protein-zinc-chelator) can be effective as an antiviral agent, with nontoxic effects, provided that the agent conforms with certain specific structural requirements."}, "[3]": {"tested_on": "virus-infected host cells (HSV-1, HSV-2, HIV-1, Hepatitis C)", "assay": "Fate of virus-infected host cells after treatment", "type": "cell-based", "details": "for fate of virus and host cells: HIV-1, Hepatitis C and numerous other viruses", "source_text": "Because DnaJ proteins are zinc finger proteins, these proteins can be neutralized and render non-functional by using picolinic acid and derivatives thereof. DnaJ is essential for protein-related cellular functions in both non-infected normal plant and animal cells. […] In contrast, in virally infected cells, picolinic acid and derivatives thereof have pronounced toxic effects which may include suppression of DnaJ proteins. Virally infected cells were killed by picolinic acid and derivatives thereof by apoptosis. In plant cells, this process is denoted as PCD.\nAPOPTOSIS. Apoptosis is a morphological pattern of cell injury and an important mode of cell death (Robbins, Pathological Basis of Disease, 1999, 6th Ed). Apoptosis shares and overlaps common mechanisms with necrosis. […] This form of cell death is designed to eliminate defective, unwanted and damaged cells. For example, the inventors have shown that cells infected by Herpes Simplex Virus 1 (HSV; labialis) and HSV-2 genitalis are destroyed together with the host cells that they infected by apoptosis when exposed to pyridine carboxylates (Fernandez-Pol, Anticancer Res. 2002). […] Thus, the inventors believes that when host cells of animals or plants are infected by pathogenic viruses, unless the treatment is extremely quickly, the host cells and the virus will be destroyed. In fact, host cells defective, mutated, and reservoirs for the novo synthesis of viruses are unwanted host cells and must be eliminated in many instances to allow the survival of the organism."}, "Arabidopsis thaliana [4]": {"tested_on": "Arabidopsis thaliana", "details": "in vivo; cited from earlier work"}, "[5]": {"tested_on": "SV40 transformed BALB-3T3 cells", "details": "cited from earlier work"}, "[6]": {"tested_on": "virally-transformed cells", "details": "further incubation / longer exposure, all transformed cells; cited from earlier work"}, "NRK cells": {"tested_on": "NRK cells", "details": "cells treated with picolinic acid; cited from earlier work"}, "[7]": {"tested_on": "iron incorporation into cells", "details": "cited from earlier work"}, "[8]": {"tested_on": "normal cells (NRK, BALB 3T3, WI-348)", "details": "cited from earlier work"}, "Arabidopsis thaliana [9]": {"tested_on": "Arabidopsis thaliana", "details": "cited from earlier work"}, "[10]": {"tested_on": "Rice suspension cells and leaves", "details": "cited from earlier work; for hypersensitive response (HR): rice"}, "[11]": {"tested_on": "normal cells (NRK, BALB 3T3, WI-348)", "assay": "Control of growth by picolinic acid in normal cells", "details": "normal animal cells", "text": "Cells transformed (made cancerous) by different viruses that contain ZFP respond differently to picolinic acid. […] Numerous transformed cell lines (Fernandez-Pol, Proc. Natl. Acad. Sci. USA, 74:2889-2893, 1977) were exposed to PA and the points of arrest varied. […] Two important facts emerged from studies with transformed cell lines."}, "[12]": {"tested_on": "tomato spotted wilt virus", "details": "cited from earlier work"}}, "note": "Entries after “also recorded” stand apart in the source; their conditions may differ. Where two headings read alike, the source gives them in different places.", "data": [{"compound": "O=C(O)CN(CCN(CC(=O)O)CC(=O)O)CC(=O)O", "note": "[EDTA]", "values": [{"measurement": "viral integrity", "setting": "Mammalian rotaviruses", "result": "partial disintegration of the viral membranes"}, {"measurement": "viral integrity, measured by release of reverse transcriptase", "setting": "mammalian retroviruses", "result": "partial disintegration of viral membranes"}]}, {"compound": "O=C(O)CN(CCOCCOCCN(CC(=O)O)CC(=O)O)CC(=O)O", "note": "[EGTA]", "values": [{"measurement": "viral integrity", "setting": "Mammalian rotaviruses", "result": "partial disintegration of the viral membranes"}, {"measurement": "viral integrity, measured by release of reverse transcriptase", "setting": "mammalian retroviruses", "result": "partial disintegration of viral membranes"}]}, {"compound": "CCCCc1ccc(C(=O)O)nc1", "note": "[Fusaric acid, 5-butyl picolinic acid]", "values": [{"measurement": "efficacy against viral infection", "setting": "HSV-1", "result": "effective"}, {"measurement": "binding to Zn(HIV1-F1)", "setting": "[1]", "result": "bind Zn(HIV1-F1) at a hydrophobic cleft"}, {"measurement": "binding in one dimensional 1H NMR titration", "setting": "[1]; peptide 1.63 mM, Zn2+ 2 mM, free zinc minimized", "result": "competitively binds both Zn^2+ and the Zn^2+/Peptide complex"}, {"measurement": "germination of parasite", "setting": "Orobanche ramose", "result": "inhibited"}, {"measurement": "efficacy against viral infection", "setting": "HSV-2", "result": "effective"}, {"measurement": "outcome of treatment of virus-infected ornamental plants", "setting": "[2]", "result": "positive results"}, {"measurement": "removal of zinc from CCCC zinc finger of MPS-1", "setting": "recombinant MPS-1", "result": "remove radioactive Zn65; also recorded: remove zinc"}, {"measurement": "zinc dependent binding of recombinant MPS-1 to DNA", "setting": "recombinant MPS-1", "result": "inhibit"}, {"measurement": "fate of virus and host cells", "setting": "[3]", "result": "Death by apoptosis"}, {"measurement": "concentration eliciting plant defense responses without toxic effects", "setting": "Arabidopsis thaliana [4]", "result": 100, "unit": "nM"}, {"measurement": "concentration reducing root growth and inducing membrane hyperpolarization then depolarization", "setting": "Arabidopsis thaliana [4]", "result": "> 500", "unit": "µM"}]}, {"compound": "NC(=O)c1cccnc1", "note": "[Nicotinamide]", "values": [{"measurement": "effect on cell growth or apoptosis", "setting": "[5]; at 48h", "result": "no effect"}, {"measurement": "morphology", "setting": "[5]", "result": "flatten"}]}, {"compound": "O=C(O)c1ccccn1", "note": "[Picolinic acid, 2-pyridine carboxylic acid]", "values": [{"measurement": "toxicity in transformed cells", "setting": "[6]", "result": "cytotoxicity and cell death; also recorded: cell death by apoptosis"}, {"measurement": "mitochondrial effect", "setting": "[5]; 3 mM picolinic acid", "result": "released cytochrome c"}, {"measurement": "potency of prostaglandin E1 in elevating cyclic AMP", "setting": "NRK cells", "result": "two to five times more potent"}, {"measurement": "binding to Zn(HIV1-F1)", "setting": "[1]", "result": "bind Zn(HIV1-F1) at a hydrophobic cleft"}, {"measurement": "incorporation of iron into the cells", "setting": "[7]", "result": "inhibits incorporation of iron"}, {"measurement": "removal of radioiron from the cells", "setting": "[7]", "result": "effectively removes radioiron"}, {"measurement": "phase of cell cycle arrest", "setting": "[8]; Normal rat kidney (NRK) cells", "result": "arrested in G1"}, {"measurement": "toxicity in normal cells", "setting": "[8]", "result": "no toxic effects"}, {"measurement": "marker defense genes PR-1, PR-2 and PDF1.2", "setting": "Arabidopsis thaliana [9]; dose-dependent and time dependent", "result": "all induced"}, {"measurement": "hypersensitive response (HR)", "setting": "Arabidopsis thaliana [9]; including oxidative burst and cell death", "result": "induced HR"}, {"measurement": "cell death", "setting": "[10]; Rice suspension cells and leaves", "result": "apoptosis"}, {"measurement": "reactive oxygen species (ROS)", "setting": "[10]; rice suspension cells, Ca2+-dependent", "result": "induced reactive oxygen species (ROS)"}, {"measurement": "hypersensitive response (HR)", "setting": "[10]", "result": "elicits hypersensitive-like response"}, {"measurement": "hypersensitive response (HR)", "setting": "[10]; listed as Alpha-picolinic acid", "result": "can elicit the hypersensitive response (HR)"}, {"measurement": "outcome of treatment of virus-infected ornamental plants", "setting": "[2]", "result": "positive results"}, {"measurement": "removal of zinc from CCCC zinc finger of MPS-1", "setting": "recombinant MPS-1", "result": "remove radioactive Zn65; also recorded: remove zinc"}, {"measurement": "zinc dependent binding of recombinant MPS-1 to DNA", "setting": "recombinant MPS-1", "result": "inhibit"}, {"measurement": "suppression of DnaJ-like proteins", "setting": "[11]", "result": "did not lead to the suppression"}, {"measurement": "fate of virus and host cells", "setting": "[3]", "result": "Death by apoptosis"}, {"measurement": "fate of virally infected cells", "setting": "[3]; virally infected cells", "result": "killed"}]}, {"compound": "NC(=O)c1ncn([C@@H]2O[C@H](CO)[C@@H](O)[C@H]2O)n1", "note": "[Ribavirin]", "values": [{"measurement": "use against virus", "setting": "[12]; tomato and tobacco plants", "result": "successfully used"}, {"measurement": "host in which most efficient", "setting": "[12]; tomato versus tobacco", "result": "most efficient in tomato plants"}]}]}
